Earlier results in patent US20020064834A1, “Microbiological production method for alpha-L-aspartyl-L-phenylalanine” (priority 1999, published 2002).
Residues, ends and D or L forms follow the SMILES beside them.

Conditions: relative to sucrose

Compound: COC(=O)[C@H](Cc1ccccc1)NC(=O)[C@@H](N)CC(=O)O [APM, α-L-aspartyl-L-phenylalanine methyl ester] (H-Asp-Phe-OMe)
- sweetness as potent as the sweetness of sucrose: about 200 ×
